Test system: arachidonic acid-induced ear swelling
Experiment: topical arachidonic acid-induced ear swelling model in mice
Assay type: in vivo
Conditions: for % Inhibition of ear swelling: measured at 90 minutes, male ICR mice; for inhibition in the ear swelling induced by arachidonic acid relative to vehicle-treated group (in words): statistically significant, p<0.05
Protocol: The active compounds (methanesulfonylalkylnitriles, n=1-6), indomethacin (positive control), and vehicle were evaluated for anti-inflammatory activity in a topical arachidonic acid-induced ear swelling model in mice.
Methanesulfonylacetonitrile (n=1) was purchased from Aldrich. Methanesulfonylalkylnitriles, n=2-5 were prepared by a method modified from Hsi et al. (Scientia Sinica 1974, 17, 743-751) with 30% hydrogen peroxide as the oxidizing agent. 7-methanesulfonylheptanenitrile (n=6) was prepared according to Example 1. Each active compound and the positive control were dissolved in vehicle (ethanol/acetone 1:1).
Male ICR mice weighing 22±2 g were used and randomly divided; each group had 10 mice. Arachidonic Acid (0.5 mg in 20 μl of acetone:ethanol/1:1) was applied topically to the anterior and posterior surfaces of the right ear of each mice. Test substances and vehicle, as listed in Table 3 were similarly topically applied 30 min before and 15 min after arachidonic acid application. The thickness of the right ear and the left ear was measured and the difference calculated as an indication of the inflammation in the right ear. Ear swelling was measured by a Dyer model micrometer gauge at 60 and 90 minutes after arachidonic acid application as an index of inflammation. Percent inhibition was calculated according to the formula: Ic−It/Ic×100, where Ic and It refers to increase of ear thickness (mm) in control and treated mice, respectively. ANOVA and Dunnett's test were employed to ascertain significant difference between vehicle control and treated groups. Significance is set at P<0.05 level.

[1] = 375 mM in acetone:ethanol (1:1), 20 μL, 30 min before and 15 min after arachidonic acid

CS(=O)(=O)CCCCCC#N [6-methanesulfonylhexanenitrile]
% Inhibition of ear swelling [1]: 8%

CS(=O)(=O)CC#N [Methanesulfonylacetonitrile, methanesulfonylacetonitrile]
% Inhibition of ear swelling [1]: 22%
inhibition in the ear swelling induced by arachidonic acid relative to vehicle-treated group (in words): significant inhibition

COc1ccc2c(c1)c(CC(=O)O)c(C)n2C(=O)c1ccc(Cl)cc1 [Indomethacin, reference compound]
% Inhibition of ear swelling (positive control, 14 mM (0.5% w/v), 0.1 mg/20 μL): 53%

CS(=O)(=O)CCC#N [3-methanesulfonylpropionitrile]
% Inhibition of ear swelling [1]: 36%
inhibition in the ear swelling induced by arachidonic acid relative to vehicle-treated group (in words): significant inhibition

CS(=O)(=O)CCCC#N [4-methanesulfonylbutyronitrile]
% Inhibition of ear swelling [1]: 15%

CS(=O)(=O)CCCCC#N [5-methanesulfonylpentanenitrile]
% Inhibition of ear swelling [1]: 24%
inhibition in the ear swelling induced by arachidonic acid relative to vehicle-treated group (in words): significant inhibition

CS(=O)(=O)CCCCCCC#N [7-methanesulfonylheptanenitrile]
% Inhibition of ear swelling [1]: 46%
inhibition in the ear swelling induced by arachidonic acid relative to vehicle-treated group (in words): significant inhibition

From US20130324603A1, “PHARMACEUTICAL COMPOSITION FOR TREATING INFLAMMATION AND PAIN” (priority 2012, published 2013)
